Source: PubChem BioAssay (NCI)
Values joined by “and” are separate entries in the source; they are usually repeats but may differ in a detail not shown here. Equal entries are not always repeated.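 The compound was tested at five concentrations on cells cultured in 96-well plates, with a 48-hour exposure period. GI50: concentration for 50% inhibition of growth. TGI is the concentration that stops growth completely.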

Key:
Assay in all cases: NCI anticancer screen, dose series, 48 h
[1] = tested on: RXF 393 renal
[2] = tested on: T-47D breast
[3] = tested on: MCF7 breast
[4] = tested on: SF-268 CNS
[5] = tested on: NCI-H460 lung
[6] = tested on: SF-539 CNS
[7] = tested on: A549 NSCLC
[8] = tested on: MDA-MB-231 breast
[9] = tested on: CAKI-1 renal
[10] = tested on: A498 renal

SMILES | GI50 [1] | TGI [1] | GI50 [2] | TGI [2] | GI50 [3] | TGI [3] | GI50 [4] | TGI [4] | GI50 [5] | TGI [5] | GI50 [6] | TGI [6] | GI50 [7] | TGI [7] | GI50 [8] | TGI [8] | GI50 [9] | TGI [9] | GI50 [10] | TGI [10]
Nc1nc(N)c2nc(CNc3ccc(C(=O)NC(CC(=O)O)C(=O)O)cc3)cnc2n1 (configuration not stated) | > 72.4 µM | > 100 µM | > 65.6 µM | > 100 µM | 0.631 µM | > 100 µM | 0.528 µM | > 100 µM | 0.354 µM | > 100 µM | 3.93 µM | > 100 µM | 0.569 µM | > 100 µM | > 100 µM | > 100 µM | 0.481 µM | 12.4 µM | 13.3 µM | > 100 µM
O=C(Cn1c(=O)c(-c2ccccc2)nc2ccccc21)Nc1ccc(F)cc1 | 35.5 µM | > 100 µM | 50.8 µM | > 100 µM | 98.7 µM | > 100 µM | > 100 µM | > 100 µM | > 100 µM | > 100 µM | 4.03 µM | 28.7 µM | 94.8 µM | > 100 µM | 99.7 µM | > 100 µM | > 100 µM | > 100 µM | 13.7 µM | 97.9 µM
COc1cc(NC(C)CCCN)c2ncccc2c1 (configuration not stated) | 17.1 µM and 37.4 µM | > 79.6 µM and 100 µM |  | > 53.2 µM |  | 31.5 µM |  | > 100 µM | 32.8 µM and > 94.8 µM | > 100 µM |  | > 100 µM |  | > 100 µM |  | > 100 µM |  | > 100 µM | 30.6 µM and 76.7 µM | > 100 µM
COc1ccc2c(c1)nnn1c3ncccc3c(N=O)c21 | 0.308 µM and 1.96 µM | 3.14 µM and 10.9 µM | 0.162 µM and 0.515 µM | 2.36 µM and 7.9 µM | 0.132 µM and 0.336 µM | 0.814 µM and 2.21 µM | 0.465 µM and 1.73 µM | 3.56 µM and 8.25 µM | 1.67 µM and 2.19 µM | 8.12 µM and 7.8 µM | 0.467 µM and 1.51 µM | 1.24 µM and 3.18 µM | 10.8 µM and 3.87 µM | 50 µM and 15.7 µM | 1.26 µM and 1.88 µM | 12.7 µM and 6.41 µM | 0.0892 µM and 0.202 µM | 0.359 µM and 1.59 µM | 1.27 µM and 6.23 µM | 6.26 µM and 22.5 µM
CC1(N)CCN(c2cccnc2NC(=O)c2nc(-c3ncccc3C(F)(F)F)cnc2N)CC1 | 10.1 µM | 32.4 µM | 17.5 µM | 48.3 µM | 26.2 µM | > 100 µM | 31.5 µM | > 100 µM | 41.1 µM | > 100 µM | 14.4 µM | 33.7 µM | 22 µM | > 100 µM | 27.8 µM | > 100 µM | 17.8 µM | > 100 µM | 34.7 µM | > 100 µM
O=C(Nc1cccc(-n2cc(-c3ccncc3)c(-c3ccc(Cl)c(O)c3)n2)c1)c1ccc(N2CCOCC2)c(C(F)(F)F)c1 | 0.626 µM | 2.9 µM | 35.9 µM | > 50 µM | 2.81 µM | > 50 µM | 5.58 µM | > 50 µM | 1.72 µM | 14.8 µM | 1.37 µM | 17.3 µM | 3.08 µM | > 50 µM | 0.975 µM | 15.6 µM | 2.78 µM | 24.6 µM | 15.5 µM | > 50 µM
COc1cccc(-c2nn(-c3ccccc3)cc2-c2ccnc(NCCCNC(=O)Nc3ccc(Cl)c(Cl)c3)c2)c1 | 1.81 µM | 4.87 µM | 2.41 µM | 11.4 µM | 1.94 µM | 3.71 µM | 3.32 µM | 13.9 µM | 3.76 µM | 14.7 µM | 2.25 µM | 5.29 µM | 3.79 µM | 13.4 µM | 1.97 µM | 5.03 µM | 3.16 µM | 15 µM | 2.15 µM | 8.08 µM
COc1ccc(/C=C/C(=O)c2ccc(O)c(CN3CCN(c4cc5c(cc4F)c(=O)c(C(=O)O)cn5C4CC4)CC3)c2)cc1 | 1.42 µM | 60.3 µM | 1.83 µM | > 100 µM | 0.456 µM | > 100 µM | 2.32 µM | > 100 µM | 6.08 µM | > 100 µM | 0.407 µM | > 100 µM | 3.69 µM | > 100 µM | 2.19 µM | 13 µM | 2.35 µM | > 100 µM | 1.34 µM | 5.54 µM
CC1OC(OC2C[C@](O)(C(=O)CF)Cc3c(O)c4c(c(O)c32)C(=O)c2ccccc2C4=O)CC(N)C1O (some centres not stated) |  | 0.268 µM |  | 0.151 µM |  | 1.08 µM |  | 1.37 µM |  | 0.031 µM |  | 1.33 µM |  | 0.173 µM |  | 0.283 µM |  | 0.0763 µM |  | 1.28 µM
CNCCCn1c2c(c3ccc([N+](=O)[O-])cc3c1=O)C(=O)c1cc(OC)cnc1-2 | 0.0685 µM | 0.372 µM | 0.0309 µM | 0.283 µM | 0.0132 µM | 1.06 µM | 0.0685 µM | 2.17 µM | 0.0194 µM | 0.185 µM | 0.0505 µM | 0.567 µM | 0.0696 µM | 0.359 µM | 0.265 µM | 1.72 µM | 0.0346 µM | 0.342 µM | 0.0338 µM | 0.276 µM
O=C1C(N2CC2)=C(N2CC2)C(=O)C(N2CC2)=C1N1CC1 | 0.218 µM | 1.01 µM | 0.659 µM | 23.8 µM | < 0.0218 µM | 1.5 µM | 0.265 µM | 5.31 µM |  | 0.178 µM | 0.104 µM | 1.24 µM | 0.059 µM | 0.428 µM | 14.9 µM | 56.1 µM | 0.0371 µM | 2.18 µM | 0.348 µM | 1.19 µM
COc1ccc(C2CC(C)(O)Oc3cc4c(cc32)OCO4)cc1 (configuration not stated) |  | > 39 µM |  | > 50.5 µM |  | > 100 µM |  | > 100 µM |  | > 100 µM |  | > 100 µM |  | > 100 µM |  | > 100 µM |  | > 100 µM |  | > 91.6 µM
O=C(Nc1cccc(-n2cc(-c3ccncc3)c(-c3cc(O)cc(Cl)c3)n2)c1)Nc1ccc(Cl)c(C(F)(F)F)c1 | 1.42 µM | 3.88 µM | 2.44 µM | 9.27 µM | 2.63 µM | 8.54 µM | 3.1 µM | 16 µM | 2.59 µM | 7.37 µM | 1.97 µM | 4.49 µM | 2.33 µM | 9.2 µM | 1.86 µM | 5.85 µM | 2.68 µM | 7.87 µM | 3.9 µM | 15.5 µM
